These results are taken from patent US20080081039A1, “Inorganic Selenium For Treatment Of Cancer” (priority 2004, published 2008).

One data set concerns Akt. Nature of the data set: Activation of Akt by different selenium compounds in PC-3 cells, immunoblot. In kind it is cell-based, human. The following applies: 125 μM, 6 hours, serum starved PC-3 cells. From the text: Signal intensities from the developed films were scanned and intensities of active Akt correlated to total Akt levels were plotted.
For data set [1], the system named is DU145 prostate cancer cells. Particulars: cited from earlier work.
The subject of the next data set is GFP-FKHR fusion protein. Nature of the data set: GFP-FKHR cellular localization in transfected PC-3 cells. In kind it is cell-based, human. Particulars: LY294002 50 μM 1 hour; sodium selenate or selenomethionine 0.5 mM 3 hours. Here is the method:
The day before transfection, 5×10^5 PC-3 cells were seeded in 24-well dishes and transiently transfected with 0.8 μg of pcDNA3-GFP-FKHRwt construct (kind gift Dr Bill Sellers, Dana-Farber Institute, Boston) using Lipofectamine 2000 (Invitrogen). Cells were permeabilized in 0.2% Triton X-100 and the nuclear contents stained with DAPI. Coverslips were mounted with fluorescent mounting medium (DAKO). The cellular distribution of green fluorescence was determined in dual fluorescent cells using a Leica epifluorescent microscope.
Reintroducing PTEN function in such cells induces translocation of FKHR to the nucleus eventually causing G1 arrest in PTEN-null cells (Nakamura et al 2000, supra).

The subject of another data set is PC-3 cells. Nature of the data set: MTT growth assay. In kind it is cell-based, human. The following applies: 0.25 and 0.5 mM, 72 hour. Here is the method:
MTT Growth Assays involved plating 1×10^3 PC-3 cells per well in a 96 well plate and allowing the cells to attach overnight. […] The controls for this experiment received an equal volume of LY294002 diluent (DMSO). MTT growth assays were then performed according to the manufacturer's protocol (Sigma).
(Tetrazolium assays rely on reduction of a dye to a coloured formazan, in cell work by metabolically active cells.)

The test system of data set [2] is cell cycle regulatory proteins (cyclin D1, cdk4, cdk6, p27KIP1, p21CIP1). Nature of the data set: Immunoblot of cell cycle regulatory proteins in PC-3 cells. In kind it is cell-based, human. The following applies: 0.5 mM, compared to control (0 hours), FIG. 3C. The text has this: The following antibodies were obtained from Cell Signaling Technology (Beverly, Mass., USA) unless otherwise stated: anti-p27^KIP1 (bd Pharmingen), anti-p21^CIP1 , ANTI-CYCLIN d1, ANTI-CYCLIN d3, ANTI-CDK4, ANTI-CDK6, ANTI-PHOSPHO rb (Ser807/811), anti-RB, anti-phospho Akt (Ser473), anti-phospho Akt (Thre308), anti-Akt, anti-phospho PDK1 (Ser241), anti-phospho PDK1 (Tyr373/376), anti-phospho GSK-3β, anti-phospho mTOR (Ser2448), anti-mTOR, anti-βIII tubulin (Promega).
To determine the effect of selenate on the phosphorylation of proteins involved in the PI3K/Akt signaling cascade, 5×10^5 PC-3 cells were allowed to attach for 10 hours. […] Cells were lysed in ELB (250 mM NaCl, 50 mM HEPES pH 7.0, 5 mM EDTA, 0.5 mM DTT, 0.2% TX100, 20 mM sodium fluoride, 2 mM sodium pervanadate, Complete Protease Inhibitor Cocktail (Roche)). Lysates were centrifuged for 15 minutes at 4° C. Protein concentration was determined using the BCA system (Sigma) and equal amounts of protein were loaded into each lane of a SDS-polyacrylamide gel. The proteins were transferred onto PVDF (Millipore) membranes and detected with anti-mouse or anti-rabbit secondary antibodies couples to horseradish peroxidase (HRP) and chemiluminescence using the SuperSignal West Dura (Pierce). Membranes were stripped using the Restore Western Blot Stripping Buffer (Pierce).

For data set [3] the following is noted: at certain doses; cited from earlier work.
A further data set deals with Histone H2A.X. Particulars: 500 μM.
Another data set has as its system β-tubulin. Nature of the data set: β-tubulin levels in treated PC-3 cell lysates. In kind it is cell-based, human.
In data set [4] the test system is human prostate cancer PC-3 cells. Description: Cell toxicity by Trypan Blue Exclusion, selenate versus selenite. Particulars: 5 μM or 50 μM, 24 to 96 hours. Here is the method: 5×10^3 human prostate cancer PC-3 cells were seeded in a 24-well dish and 8 hours later were treated with either 5 μM or 50 μM of selenate or selenite. The dose range of 5 μM or 50 μM is equivalent to 0.1 mg/kg to 1.25 mg/kg. Cells were harvested at 24, 48, 72 and 96 hours following the addition of selenate or selenite and the percentage of viable cells as assessed by Trypan Blue staining was determined.
All cells in the tissue culture wells were then harvested sequentially at periods between 24 and 96 hours following addition of the treatments. The percentage of viable cells were then determined using the Trypan Blue exclusion assay.

Protocol for Histone H2A.X: 5×10^5 PC-3 cells were plated in a 6 well dish and 24 hours later cells were treated with paclitaxel at 1 μg/mL or 10 μg/mL or selenate 500 μM (19 mg/kg) or selenite 500 μM (18 mg/kg) for the indicated times. Cells were then washed in PBS, lysed in ELB lysis buffer and whole cell lysates run on a SDS-PAGE gel and blotted and probed with the indicated antibodies. Phosphorylation of Histone H2AX occurs within minutes of DNA damage, typically via DNA double or single strand breaks and is a very sensitive readout of DNA damage.
To ascertain the differences between selenate, selenite and the taxane, paclitaxel in inducing DNA damage PC-3 cells were treated with these compounds for increasing time periods then lysed. The protein extracts were probed for phosphorylation of Histone H2A.X using a phosphorylation specific antibody.

Take `O=[Se](O)O` [Selenous acid]: in the data set with Akt, the “activation of Akt (phosphorylated Akt relative to total Akt)” value is “induce activation of Akt above control (con) levels”.
Consider `C[Se](=O)O` [Methylseleninic acid], for which the “apoptosis and phosphorylation of Akt in DU-145 cells” value in data set [1] (3 μM) is reported as “not associated with apoptosis or with decreased phosphorylation of Akt”. In [1], the “G1 arrest and apoptosis markers in DU145 cells” value was “induces G1 arrest, as well as DNA fragmentation and caspase mediated cleavage of PARP”. For the same compound, in data set [1] (doses as low as 3 μM), the “G1 arrest of DU-145 cells” value was “induced G1 arrest”. In addition, in data set [1] (higher doses of 5 μM), the “Akt activation in DU-145 cells” value was “dose-dependent decline in Akt activation” and the “apoptosis in DU-145 cells” value is reported as “initiation of caspase-mediated apoptosis”.
Regarding `S=[Se]=S` [selenium sulfide], the “activation of Akt (phosphorylated Akt relative to total Akt)” value in the data set on Akt is on record as “induce activation of Akt above control (con) levels”.
For the compound `O=[Se]=O` [selenium dioxide], in the data set on Akt, the “activation of Akt (phosphorylated Akt relative to total Akt)” value is reported as “induce activation of Akt above control (con) levels”.
Regarding `C[Se]CC[C@H](N)C(=O)O` [selenomethionine, reference compound], the “relocalization of GFP-FKHR from the cytoplasm to the nucleus” value in the data set with GFP-FKHR fusion protein is “unable to induce relocalization”. For the same compound, the “PC-3 cell proliferation (MTT proliferative index)” value in the data set on PC-3 cells was “less effective in reducing cell proliferation”. The “p27KIP1 total protein levels, inorganic versus organic selenium” value in data set [2] was “little effect”.
On to `O=[Se](O)O` [sodium selenite], for which, in data set [3], the toxicity to cells entry was “toxic to cells”. For the same compound, the “time of treatment to DNA damage” value in the data set with Histone H2A.X is at most 30 min. Also, in the data set on β-tubulin (100 μM, 250 μM or 500 μM, 16 hours), the cellular tubulin degradation entry is on record as “marked degradation”. Further, the β-tubulin levels result in the data set with β-tubulin (500 μM, increasing time periods) is listed as “concomitant decrease in β-tubulin levels”. The “cytotoxic effect (Trypan Blue exclusion)” value in data set [4] is on record as “cytotoxic effect”.
As for `N[C@@H](C[SeH])C(=O)O` [Selenocysteine], the “activation of Akt (phosphorylated Akt relative to total Akt)” value in the data set on Akt is on record as “induce activation of Akt above control (con) levels”.
